Experimental data as given in ChEMBL document CHEMBL3352333, “Structural evidence of N6-isopentenyladenosine as a new ligand of farnesyl pyrophosphate synthase” (J Med Chem, 2014).
Activity calls are given as the source filed them. The rule behind the calls is not given here.

Legend:
[1] = biological target: T1, Farnesyl pyrophosphate synthase (Homo sapiens, UniProt P14324); assay: Binding affinity to FPPS (unknown origin) expressed in Escherichia coli BL21(DEscherichia ) assessed as binding constant of proton H12 of isopentenylic moiety by saturation transfer difference NMR analysis
T1 sequence (P14324 whole entry): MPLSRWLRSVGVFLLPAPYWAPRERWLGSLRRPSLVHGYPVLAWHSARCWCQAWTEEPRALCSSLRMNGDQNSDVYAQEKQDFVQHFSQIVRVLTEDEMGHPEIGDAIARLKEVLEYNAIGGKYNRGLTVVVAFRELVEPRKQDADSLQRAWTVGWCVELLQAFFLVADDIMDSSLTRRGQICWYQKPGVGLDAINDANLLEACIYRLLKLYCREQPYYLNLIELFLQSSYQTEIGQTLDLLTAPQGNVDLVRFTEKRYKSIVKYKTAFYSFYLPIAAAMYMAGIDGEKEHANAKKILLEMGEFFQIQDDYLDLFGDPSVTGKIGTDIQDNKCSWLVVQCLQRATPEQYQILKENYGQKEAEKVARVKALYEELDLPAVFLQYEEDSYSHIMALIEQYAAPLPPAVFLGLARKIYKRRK

[2] = biological target: T1, Farnesyl pyrophosphate synthase; assay: Binding affinity to FPPS (unknown origin) expressed in Escherichia coli BL21(DEscherichia ) assessed as binding constant of proton H11 of isopentenylic moiety by saturation transfer difference NMR analysis
[3] = biological target: T2, Farnesyl pyrophosphate synthase (Homo sapiens) (UniProt P14324); assay: Binding affinity to FPPS (unknown origin) expressed in Escherichia coli BL21(DEscherichia ) at protein/ligand 1:10 to 1:100 molar ratio by WaterLOGSY 1D 1H NMR analysis
T2 sequence (whole entry): T1 sequence (P14324 whole entry)

[4] = biological target: T1, Farnesyl pyrophosphate synthase; assay: Binding affinity to FPPS (unknown origin) expressed in Escherichia coli BL21(DEscherichia ) assessed as binding constant of proton H2/H8 of purine ring by saturation transfer difference NMR analysis
[5] = biological target: T1, Farnesyl pyrophosphate synthase; assay: Binding affinity to FPPS (unknown origin) expressed in Escherichia coli BL21(DEscherichia ) assessed as binding constant of proton H14-H15 of isopentenylic moiety by saturation transfer difference NMR analysis
[6] = biological target: T2, Farnesyl pyrophosphate synthase (Homo sapiens); assay: Binding affinity to FPPS (unknown origin) expressed in Escherichia coli BL21(DEscherichia ) at protein/ligand 1:10 to 1:100 molar ratio by saturation transfer difference NMR analysis
[7] = biological target: T2, Farnesyl pyrophosphate synthase (Homo sapiens); assay: Binding affinity to FPPS (unknown origin) expressed in Escherichia coli BL21(DEscherichia ) at protein/ligand 1:10 to 1:100 molar ratio by 2D COSY NMR analysis
[8] = biological target: T2, Farnesyl pyrophosphate synthase (Homo sapiens); assay: Binding affinity to FPPS (unknown origin) expressed in Escherichia coli BL21(DEscherichia ) at protein/ligand 1:10 to 1:100 molar ratio by WaterLOGSY NMR analysis

- Kd [1]: 2210 µM
- Kd [2]: 550 µM
- Activity [3]: Active
- Kd [4]: 2020 µM
- Kd [5]: 1210 µM
- Activity [6]: Active
- Activity [7]: Active
- Activity [8]: Active
SMILES: CC(C)=CCNc1ncnc2c1ncn2[C@@H]1O[C@H](CO)[C@@H](O)[C@H]1O [RIBOPRINE]
